The text below walks through data of ChEMBL document CHEMBL4138164, “Thieno[2,3-b]pyridine derivatives are potent anti-platelet drugs, inhibiting platelet activation, aggregation and showing synergy with aspirin” (Eur J Med Chem, 2018).

The source made the active and inactive calls. The calls are words filed in the database; no cut-off is given here.

In series [1] the target is P2Y purinoceptor 12 (Homo sapiens) (UniProt Q9H244). Briefly: Antagonist activity at P2Y12 in human platelet rich plasma assessed as inhibition of ADP-induced CD62P expression at 10 uM pretreated for 30 mins followed by ADP addition measured after 5 mins by flow cytometric analysis. The class given is functional. For orientation: A flow cytometer gives signals particle by particle.
Chain of P2Y purinoceptor 12 (Homo sapiens) (Q9H244 whole entry): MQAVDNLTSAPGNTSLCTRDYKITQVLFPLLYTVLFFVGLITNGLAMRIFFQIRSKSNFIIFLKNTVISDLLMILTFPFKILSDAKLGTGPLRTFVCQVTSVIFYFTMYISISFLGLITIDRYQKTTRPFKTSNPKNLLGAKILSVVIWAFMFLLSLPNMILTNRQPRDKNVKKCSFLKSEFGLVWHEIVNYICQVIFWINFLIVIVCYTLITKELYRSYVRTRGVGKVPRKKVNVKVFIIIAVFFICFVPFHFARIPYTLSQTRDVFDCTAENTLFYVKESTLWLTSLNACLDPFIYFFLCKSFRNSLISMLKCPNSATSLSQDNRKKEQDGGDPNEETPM

Series [2] shares this target. Briefly: Antagonist activity at P2Y12 in human platelet rich plasma assessed as inhibition of ADP-induced PAC1 expression at 10 uM pretreated for 30 mins followed by ADP addition measured after 5 mins by flow cytometric analysis. The class given is functional.
Series [3] has the same target. Description: Antagonist activity at P2Y12 in human platelet rich plasma assessed as inhibition of ADP-induced platelet aggregation at 10 uM pretreated for 30 mins followed by ADP addition measured after 5 mins by light transmission aggregometric analysis. The class given is functional.
Series [4] has the same target. Briefly: Antagonist activity at P2Y12 in human platelet rich plasma assessed as inhibition of collagen-induced platelet aggregation at 10 uM pretreated for 30 mins followed by collagen addition measured after 5 mins by light transmission aggregometric analysis. The class given is functional.
The target is the same in series [5]. Description: Antagonist activity at P2Y12 in human whole blood assessed as inhibition of ADP-induced platelet-aggregation at 10 uM pretreated for 30 mins followed by ADP addition measured after 5 mins by FITC staining-based flow cytometric analysis. The class given is functional.
Series [6] shares this target. Briefly: Synergistic inhibition of P2Y12 in human platelet rich plasma assessed as inhibition of ADP-induced platelet aggregation at 10 uM pretreated for 30 mins followed by ADP addition measured after 5 mins in presence of aspirin by light transmission aggregometric analysis. The class given is functional.
The subject of the next series is Platelet. Briefly: Cytotoxicity against platelet in human platelet rich plasma at 100 uM after 48 to 72 hrs. Type of series: cell-based.

`Cc1c(Br)cccc1NC(=O)c1sc2nc3c(cc2c1N)CCCCCC3`: the inhibition entry in series [1], in series [2], in series [3], in series [4] and in series [5] was “Active” in each case. Moreover, the inhibition result in series [6] is “inactive”. Further, the Activity result in the series on Platelet is “Non-Toxic”.
In the case of `Nc1c(C(=O)Nc2ccccc2)sc2nc3c(cc12)CCCCCC3`, the inhibition result in series [1], in series [2], in series [3], in series [4], in series [5] and in series [6] was “Active” throughout. Also, in the series on Platelet, the Activity entry was “Non-Toxic”.
As for `COc1ccc(NC(=O)c2sc3nc4c(cc3c2N)CCCCCC4)cc1`, the inhibition entry in series [1], in series [2], in series [3], in series [4] and in series [5] was “Active” throughout. The inhibition result in series [6] was “inactive”. Also, the Activity entry in the series with Platelet is on record as “Non-Toxic”.
Turning to `Cc1c(Cl)cccc1NC(=O)c1sc2nc3c(cc2c1N)CCCCC3`, the inhibition result in series [1], in series [2], in series [3], in series [4], in series [5] and in series [6] was “Active” in each case. Moreover, the Activity result in the series with Platelet is given as “Non-Toxic”.
For the compound `CC(=O)Oc1ccccc1C(=O)O`, the inhibition entry in series [3] was “Active”.
As for `Nc1c(C(=O)Nc2ccccc2Cl)sc2nc3c(cc12)C(=O)CCC3`, the inhibition entry in series [1], in series [2], in series [3], in series [4], in series [5] and in series [6] was “Active” each time. For the same compound, in the series on Platelet, the Activity entry is listed as “Non-Toxic”.
With `COC(=O)[C@H](c1ccccc1Cl)N1CCc2sccc2C1`, the inhibition result in series [3] and in series [5] was “Active” in each case. Moreover, the inhibition entry in series [4] is “inactive”.
Take `Nc1c(C(=O)Nc2cccc(Cl)c2)sc2nc3c(cc12)C(=O)CCC3`: the inhibition entry in series [1], in series [2], in series [3], in series [4], in series [5] and in series [6] was “Active” in each case. Besides, in the series on Platelet, the Activity entry was “Non-Toxic”.
